According to patent US10231939B2, “Hydroxytyrosol and oleuropein compositions for induction of DNA damage, cell death and LSD1 inhibition” (priority 2012, dated 2019):

How the values were obtained:
Test in all cases: Cell proliferation (Cell Titer-Blue Assay)
Assay type in all cases: cell-based, human
[1] = system: K562 cells; conditions: for EC50: Homo sapiens
From the text: (§1) Human chronic myelogenous leukemia K562 cells (ATCC No. CCL-243), human large B-lymphocyte non-Hodgkin's lymphoma LCL cells, human leukemic monocyte lymphoma U937 cells (ATCC No. CRL-1593.2), human prostate adenocarcinoma PC3 (ATCC No. CRL-1435) and human gastric carcinoma SNU-16 cells (ATCC No. CRL-5974) were maintained in complete-[…] Park Memorial Institute (RPMI) 1640 medium supplemented with 20 mmol/L HEPES (pH 7.4; GIBCO-Invitrogen, Carlsbad, Calif., USA), 10% (v/v) fetal bovine serum (FBS), 2 mmol/L L-glutamine (GIBCO-Invitrogen), and 80 units gentamicin (GIBCO-Invitrogen). Cells were cultured in suspension in a humidified atmosphere of 5% (v/v) CO2 at 37° C. and were maintained in exponential growth phase. For maintenance, cells were passaged twice per week and seeded at ratios 1:10. Cell proliferation was determined using the Cell Titer-Blue Assay kit (Promega, Madison, Wis., USA). Cells were seeded at 10,000 cells per well in black flat bottom 96-well plates (Nalge Nunc, Penfield, N.Y., USA) and treated with serial doses of hydroxytyrosol (0-3200 μM) and oleuropein (0-12800 μM) for 24, 48 and 120 hours at 37° C., 5% (v/v) CO2. Following incubation with the test samples, Cell-Titer Blue reagent (20 μl per 100 μL) was added to each well and mixed gently for 5 sec prior to 4 hr incubation at 37° C. in a humidified atmosphere of 5% CO2. Fluorescence intensity (λex=550 nm and λem=615 nm) was determined using a Perkin Elmer Victor3 multilabel microplate counter (PerkinElmer, Waltham, Mass., USA). Data were expressed as % relative cell viability compared to untreated cells after correction of subtracting the media control fluorescence reading.

[2] = system: PC3 cells; conditions: for EC50: Homo sapiens, PC-3
From the text: as §1

[3] = system: U937 cells; conditions: for EC50: Homo sapiens, U-937
From the text: as §1

[4] = system: LCL cells; conditions: for EC50: Homo sapiens
From the text: as §1

[5] = system: MyLa CD8+ cells; conditions: for EC50: Homo sapiens
Protocol: (§2) Human cutaneous T cell lymphoma MyLa cells expressing CD4^+ (ECACC No. 95051032) and CD8^+ (ECACC No. 95051033) were obtained from the European Culture Collection of Cell Cultures (ECACC; CAMR, Salisbury, UK) and maintained in complete-RPMI 1640 medium supplemented with 2 mM glutamine (GIBCO-Invitrogen), 10% (v/v) human AB serum (Lonza, Basel, Switzerland) and 100 u/mL IL-2 (Sigma-Aldrich, USA) or 100 u/mL IL-2 (Sigma-Aldrich, USA) with 100 u/mL IL-4 (R&D Systems, MN, USA) respectively. Cells were cultured in suspension in a humidified atmosphere of 5% (v/v) CO2 at 37° C. and were maintained in exponential growth phase. For maintenance, cells were passaged three times per week and seeded at ratios 1:2. Liver hepatocellular carcinoma Hep G2 cells (ATCC No. […]) were maintained in RPMI-1640 supplemented with 10% fetal bovine serum (FBS), and were cultured in 75 cm^2 T-flask and maintained at 37° C. in 5% CO2 humidified incubator. Cell proliferation was determined using the Cell Titer-Blue Assay kit (Promega, Madison, Wis., USA). Cells were seeded at 10,000 cells per well in black flat bottom 96-well plates (Nalge Nunc, Penfield, N.Y., USA) and treated with serial doses of hydroxytyrosol (0-3200 μM) and oleuropein (0-12800 μM) for 24, 48 and 120 hours at 37° C., 5% (v/v) CO2. Following incubation with the test samples, Cell-Titer Blue reagent (20 μl per 100 μL) was added to each well and mixed gently for 5 sec prior to 4 hr incubation at 37° C. in a humidified atmosphere of 5% CO2. Fluorescence intensity (λex=550 nm and λem=615 nm) was determined using a Perkin Elmer Victor3 multilabel microplate counter (PerkinElmer, Waltham, Mass., USA). Data were expressed as % relative cell viability compared to untreated cells after correction of subtracting the media control fluorescence reading.

[6] = system: Hep G2 cells; conditions: for EC50: Homo sapiens, HepG2
Protocol: as §2

[7] = system: MyLa CD4+ cells; conditions: for EC50: Homo sapiens
Protocol: as §2

Compound | EC50 ([1]; K562, 24 hr) | EC50 ([1]; K562, 48 hr) | EC50 ([1]; K562, 120 hr) | EC10 (concentration required to reduce the cell viability of the population to 10%) ([1]; K562, 120 hr) | EC50 ([2]; PC3, 24 hr) | EC50 ([2]; PC3, 48 hr) | EC50 ([2]; PC3, 120 hr) | EC10 (concentration required to reduce the cell viability of the population to 10%) ([2]; PC3, 120 hr) | EC50 ([3]; U937, 24 hr) | EC50 ([3]; U937, 48 hr) | EC50 ([3]; U937, 120 hr) | EC10 (concentration required to reduce the cell viability of the population to 10%) ([3]; U937, 120 hr) | EC10 (concentration required to reduce the cell viability of the population to 10%) ([4]; 120 hr) | EC50 ([4]; 24 hr) | EC50 ([4]; 48 hr) | EC50 ([4]; 120 hr) | EC10 (concentration required to reduce the cell viability of the population to 10%) ([5]; 120 hr) | EC50 ([5]; 24 hr) | EC50 ([5]; 48 hr) | EC50 ([5]; 120 hr) | other results
OCCc1ccc(O)c(O)c1 [HT, 4-(2-hydroxyethyl)-1,2-benzenediol] | 150 µM | 150 µM | 91 µM | 176 µM | 2120 µM | 320 µM | 215 µM | 630 µM | 563 µM | 500 µM | 250 µM | 370 µM | 177 µM | 370 µM | 200 µM | 94 µM | 650 µM | 460 µM | 450 µM | 230 µM | EC10 (concentration required to reduce the cell viability of the population to 10%) ([6]; Hep-G2, 120 hr): 360 µM; EC50 ([6]; Hep-G2, 24 hr): 427 µM; EC50 ([6]; Hep-G2, 48 hr): 470 µM; EC50 ([6]; Hep-G2, 120 hr): 205 µM; EC10 (concentration required to reduce the cell viability of the population to 10%) ([7]; 120 hr): 760 µM; EC50 ([7]; 24 hr): 1010 µM; EC50 ([7]; 48 hr): 870 µM; EC50 ([7]; 120 hr): 400 µM
C/C=C1/[C@H](O[C@@H]2O[C@H](CO)[C@@H](O)[C@H](O)[C@H]2O)OC=C(C(=O)OC)[C@H]1CC(=O)OCCc1ccc(O)c(O)c1 [OL, oleuropein] | 337 µM | 950 µM | 585 µM | 756 µM | 2290 µM | 3800 µM | 2500 µM | 4600 µM | 730 µM | 2800 µM | 1250 µM | 2600 µM | 1240 µM | 403 µM | 1100 µM | 640 µM | 3020 µM | 647 µM | 3600 µM | 270 µM | EC10 (concentration required to reduce the cell viability of the population to 10%) ([6]; Hep-G2, 120 hr): 2600 µM; EC50 ([6]; Hep-G2, 24 hr): 703 µM; EC50 ([6]; Hep-G2, 48 hr): 2400 µM; EC50 ([6]; Hep-G2, 120 hr): 1300 µM; EC10 (concentration required to reduce the cell viability of the population to 10%) ([7]; 120 hr): 4800 µM; EC50 ([7]; 24 hr): 647 µM; EC50 ([7]; 48 hr): 3800 µM; EC50 ([7]; 120 hr): 3400 µM
